Source: patent publication US20180072997A1, “INHIBITORS OF HUMAN IMMUNODEFICIENCY VIRUS REPLICATION” (ViiV HEATHCARE UK (NO.5) LIMITED, priority 2015, published 2018)

Columns and labels:
[1] = Compound cytotoxicity, XTT-based colorimetric assay; assay type: cell-based; details: human, uninfected MT2 cells, day 4, XTT
Description: Compound cytotoxicity and the corresponding CC50 values were determined using the same protocol as described in the antiviral assay except that uninfected cells were used. Cytotoxicity was assessed on day 4 in uninfected MT2 cells by using a XTT (2,3-bis[2-Methoxy-4-nitro-5-sulfophenyl]-2H-tetrazolium-5-carboxyanilide inner salt)-based colorimetric assay (Sigma-Aldrich, St Louis, Mo.).

[2] = tested on: recombinant NL4-3 virus (Renilla luciferase in nef) in MT-2 cells; assay: whole plant or invertebrate; assay type: cell-based, HIV; details: Renilla, NL43, MT-2 cells infected for 4-5 days with recombinant NL4-3 Renilla luciferase virus; luciferase activity
Description: HIV cell culture assay—MT-2 cells, 293T cells and the proviral DNA clone of NL4-3 virus were obtained from the NIH AIDS Research and Reference Reagent Program. MT-2 cells were propagated in RPMI 1640 media supplemented with 10% heat inactivated fetal bovine serum (FBS), 100 μg/ml penicillin G and up to 100 units/mL streptomycin. The 293T cells were propagated in DMEM media supplemented with 10% heat inactivated FBS, 100 μg/mL penicillin G and 100 μg/mL streptomycin. A recombinant NL4-3 proviral clone, in which a section of the nef gene was replaced with the Renilla luciferase gene, was used to make the reference virus used in these studies. The recombinant virus was prepared through transfection of the recombinant NL4-3 proviral clone into 293T cells using Transit-293 Transfection Reagent from Mirus Bio LLC (Madison, Wis.). Supernatent was harvested after 2-3 days and the amount of virus present was titered in MT-2 cells using luciferase enzyme activity as a marker by measuring luciferase enzyme activity. Luciferase was quantitated using the EnduRen Live Cell Substrate from Promega (Madison, Wis.). Antiviral activities of compounds toward the recombinant virus were quantified by measuring luciferase activity in MT-2 cells infected for 4-5 days with the recombinant virus in the presence of serial dilutions of the compound.
(Johnson V A, Byington R T. Infectivity Assay. In Techniques in HIV Research. ed. Aldovini A, Walker BD. 71-76. New York: Stockton Press.1990).

SMILES: COc1ccc(N(C)C(=O)[C@H](Cc2ccccc2)NC(=O)Cn2c(=O)n(CC(=O)N[C@@H](Cc3ccccc3)C(=O)N(C)c3ccc(OC)cc3)c3c(Cl)cccc32)cc1 [Example 73]
- CC50 at 4 days [1]: 39900 nM
- EC50 [2]: 70 nM

SMILES: COc1ccc(N(C)C(=O)[C@H](Cc2cc(F)cc(F)c2)NC(=O)Cn2c(=O)n(CC(=O)N[C@@H](Cc3cc(F)cc(F)c3)C(=O)N(C)c3ccc(OC)cc3)c3c(Cl)cccc32)cc1 [Example 74]
- CC50 at 4 days [1]: 11300 nM
- EC50 [2]: 30 nM

SMILES: COc1ccc(N(C)C(=O)[C@H](Cc2ccccc2)NC(=O)Cn2c(=O)n(CC(=O)N[C@@H](Cc3ccccc3)C(=O)N(C)c3ccc(OC)cc3)c3cc(F)ccc32)cc1 [Example 75]
- CC50 at 4 days [1]: 11500 nM
- EC50 [2]: 80 nM

SMILES: COc1ccc(N(C)C(=O)[C@H](Cc2cc(F)cc(F)c2)NC(=O)Cn2c(=O)n(CC(=O)N[C@@H](Cc3cc(F)cc(F)c3)C(=O)N(C)c3ccc(OC)cc3)c3cc(F)ccc32)cc1 [Example 76]
- CC50 at 4 days [1]: 11400 nM
- EC50 [2]: 30 nM

SMILES: COc1ccc(N(C)C(=O)[C@H](Cc2ccccc2)NC(=O)CC(C)(C)CC(=O)N[C@@H](Cc2ccccc2)C(=O)N(C)c2ccc(OC)cc2)cc1 [Example 77]
- CC50 at 4 days [1]: 9600 nM
- EC50 [2]: 3980 nM

SMILES: COc1ccc(N(C)C(=O)[C@H](Cc2ccccc2)NC(=O)CC2(CC(=O)N[C@@H](Cc3ccccc3)C(=O)N(C)c3ccc(OC)cc3)CCCC2)cc1 [Example 78]
- CC50 at 4 days [1]: ≥ 50000 nM
- EC50 [2]: 50000 nM

SMILES: COc1ccc(N(C)C(=O)[C@H](Cc2ccccc2)NC(=O)c2ccccc2-c2ccccc2C(=O)N[C@@H](Cc2ccccc2)C(=O)N(C)c2ccc(OC)cc2)cc1 [Example 79]
- CC50 at 4 days [1]: ≥ 100000 nM
- EC50 [2]: 1400 nM

SMILES: COc1ccc(N(C)C(=O)[C@H](Cc2ccccc2)NC(=O)/C=C\C(=O)N[C@@H](Cc2ccccc2)C(=O)N(C)c2ccc(OC)cc2)cc1 [Example 80]
- CC50 at 4 days [1]: 12800 nM
- EC50 [2]: 160 nM

SMILES: CN(C(=O)[C@H](Cc1cc(F)cc(F)c1)NC(=O)c1cccc(C(=O)N[C@@H](Cc2cc(F)cc(F)c2)C(=O)N(C)c2ccc3scnc3c2)c1Cl)c1ccc2scnc2c1 [Example 82]
- CC50 at 4 days [1]: ≥ 100000 nM
- EC50 [2]: 70 nM

SMILES: COc1ccc(N(C)C(=O)[C@H](Cc2ccccc2)NC(=O)Cn2c(=O)n(CC(=O)N[C@@H](Cc3ccccc3)C(=O)N(C)c3ccc(OC)cc3)c3cc(OC)ccc32)cc1 [Example 83]
- CC50 at 4 days [1]: 6200 nM
- EC50 [2]: 90 nM

SMILES: COc1ccc(N(C)C(=O)[C@H](Cc2cc(F)cc(F)c2)NC(=O)Cn2c(=O)n(CC(=O)N[C@@H](Cc3cc(F)cc(F)c3)C(=O)N(C)c3ccc(OC)cc3)c3cc(OC)ccc32)cc1 [Example 84]
- CC50 at 4 days [1]: 6900 nM
- EC50 [2]: 40 nM

SMILES: CN(C(=O)[C@H](Cc1ccccc1)NC(=O)NS(=O)(=O)N[C@@H](Cc1ccccc1)C(=O)N(C)c1ccccc1)c1ccccc1 [Example 85]
- CC50 at 4 days [1]: ≥ 100000 nM
- EC50 [2]: 970 nM

SMILES: CN(C(=O)[C@H](Cc1cc(F)cc(F)c1)NC(=O)NS(=O)(=O)N[C@@H](Cc1cc(F)cc(F)c1)C(=O)N(C)c1ccccc1)c1ccccc1 [Example 86]
- CC50 at 4 days [1]: 24500 nM
- EC50 [2]: 90 nM

SMILES: COc1ccc(N(C)C(=O)[C@H](Cc2ccccc2)NC(=O)Cn2c(=O)n(CC(=O)N[C@@H](Cc3ccccc3)C(=O)N(C)c3ccc(OC)cc3)c3cc([N+](=O)[O-])ccc32)cc1 [Example 87]
- CC50 at 4 days [1]: 11100 nM
- EC50 [2]: 90 nM

SMILES: COc1ccc(N(C)C(=O)[C@H](Cc2cc(F)cc(F)c2)Nc2ncc(-c3cnc(N[C@@H](Cc4cc(F)cc(F)c4)C(=O)N(C)c4ccc(OC)cc4)nc3)cn2)cc1 [Example 88]
- CC50 at 4 days [1]: 20800 nM
- EC50 [2]: 13700 nM

SMILES: COc1ccc(N(C)C(=O)[C@H](Cc2ccccc2)NC(=O)Cn2c(=O)n(CC(=O)N[C@@H](Cc3ccccc3)C(=O)N(C)c3ccc(OC)cc3)c3cc(N)ccc32)cc1 [Example 90]
- CC50 at 4 days [1]: 22700 nM
- EC50 [2]: 340 nM

SMILES: COc1ccc(N(C)C(=O)[C@H](Cc2ccccc2)NC(=O)Cn2c(=O)c3ccccc3c(=O)n2CC(=O)N[C@@H](Cc2ccccc2)C(=O)N(C)c2ccc(OC)cc2)cc1 [Example 92]
- CC50 at 4 days [1]: 10100 nM
- EC50 [2]: 290 nM

SMILES: COc1ccc(N(C)C(=O)[C@H](Cc2cc(F)cc(F)c2)NC(=O)Cn2c(=O)c3ccccc3c(=O)n2CC(=O)N[C@@H](Cc2cc(F)cc(F)c2)C(=O)N(C)c2ccc(OC)cc2)cc1 [Example 93]
- CC50 at 4 days [1]: 5700 nM
- EC50 [2]: 90 nM

SMILES: COc1ccc(N(C)C(=O)[C@H](Cc2ccccc2)NC(=O)Cn2c(=O)c(=O)n(CC(=O)N[C@@H](Cc3ccccc3)C(=O)N(C)c3ccc(OC)cc3)c3ccccc32)cc1 [Example 94]
- CC50 at 4 days [1]: 23200 nM
- EC50 [2]: 160 nM

SMILES: COc1ccc(N(C)C(=O)[C@H](Cc2ccccc2)NC(=O)COc2nc3ccccc3n(CC(=O)N[C@@H](Cc3ccccc3)C(=O)N(C)c3ccc(OC)cc3)c2=O)cc1 [Example 95]
- CC50 at 4 days [1]: ≥ 50000 nM
- EC50 [2]: 210 nM

SMILES: COc1ccc(N(C)C(=O)[C@H](Cc2cc(F)cc(F)c2)NC(=O)COc2nc3ccccc3n(CC(=O)N[C@@H](Cc3cc(F)cc(F)c3)C(=O)N(C)c3ccc(OC)cc3)c2=O)cc1 [Example 96]
- CC50 at 4 days [1]: ≥ 50000 nM
- EC50 [2]: 120 nM

SMILES: COc1ccc(N(C)C(=O)[C@H](Cc2ccccc2)NC(=O)Cn2c(=O)n(CC(=O)N[C@@H](Cc3ccccc3)C(=O)N(C)c3ccc(OC)cc3)c3cc(NC(C)=O)ccc32)cc1 [Example 97]
- CC50 at 4 days [1]: ≥ 100000 nM
- EC50 [2]: 2600 nM

SMILES: COc1ccc(N(C)C(=O)[C@H](Cc2cc(F)cc(F)c2)NC(=O)Cn2c(=O)c(=O)n(CC(=O)N[C@@H](Cc3cc(F)cc(F)c3)C(=O)N(C)c3ccc(OC)cc3)c3ccccc32)cc1 [Example 98]
- CC50 at 4 days [1]: 11200 nM
- EC50 [2]: 30 nM

SMILES: COc1ccc(N(C)C(=O)[C@H](Cc2ccccc2)NC(=O)c2cncc(C(=O)N[C@@H](Cc3ccccc3)C(=O)N(C)c3ccc(OC)cc3)c2)cc1 [Example 99]
- CC50 at 4 days [1]: 1800 nM
- EC50 [2]: 20 nM

SMILES: COc1ccc(N(C)C(=O)[C@H](Cc2ccccc2)NC(=O)Cn2c(=O)c3ccccc3n(CC(=O)N[C@@H](Cc3ccccc3)C(=O)N(C)c3ccc(OC)cc3)c2=O)cc1 [Example 100]
- CC50 at 4 days [1]: ≥ 100000 nM
- EC50 [2]: 70 nM

SMILES: COc1ccc(N(C)C(=O)[C@H](Cc2cc(F)cc(F)c2)NC(=O)Cn2c(=O)c3ccccc3n(CC(=O)N[C@@H](Cc3cc(F)cc(F)c3)C(=O)N(C)c3ccc(OC)cc3)c2=O)cc1 [Example 101]
- CC50 at 4 days [1]: ≥ 100000 nM
- EC50 [2]: 30 nM

SMILES: COc1ccc(N(C)C(=O)[C@H](Cc2ccccc2)NC(=O)c2cc(C)cc(C(=O)N[C@@H](Cc3ccccc3)C(=O)N(C)c3ccc(OC)cc3)c2)cc1 [Example 102]
- CC50 at 4 days [1]: ≥ 33300 nM
- EC50 [2]: 50 nM

SMILES: COc1ccc(N(C)C(=O)[C@H](Cc2ccccc2)NC(=O)c2cc(C(=O)N[C@@H](Cc3ccccc3)C(=O)N(C)c3ccc(OC)cc3)cc(C(C)(C)C)c2)cc1 [Example 103]
- CC50 at 4 days [1]: ≥ 33300 nM
- EC50 [2]: 150 nM

SMILES: COc1ccc(N(C)C(=O)[C@H](Cc2ccccc2)NC(=O)[C@H](C)NC(=O)N[C@@H](C)C(=O)N[C@@H](Cc2ccccc2)C(=O)N(C)c2ccc(OC)cc2)cc1 [Example 104]
- CC50 at 4 days [1]: 31000 nM
- EC50 [2]: 130 nM

SMILES: COc1ccc(N(C)C(=O)[C@H](Cc2ccccc2)NC(=O)c2ccnc(C(=O)N[C@@H](Cc3ccccc3)C(=O)N(C)c3ccc(OC)cc3)c2)cc1 [Example 105]
- CC50 at 4 days [1]: 3100 nM
- EC50 [2]: 680 nM

SMILES: COc1ccc(N(C)C(=O)[C@H](Cc2ccccc2)NC(=O)c2ccc(F)c(C(=O)N[C@@H](Cc3ccccc3)C(=O)N(C)c3ccc(OC)cc3)c2)cc1 [Example 106]
- CC50 at 4 days [1]: 6300 nM
- EC50 [2]: 50 nM

SMILES: CN(C(=O)[C@H](Cc1cc(F)cc(F)c1)NC(=O)c1cccc(S(=O)(=O)N[C@@H](Cc2cc(F)cc(F)c2)C(=O)N(C)c2ccc3scnc3c2)c1)c1ccc2scnc2c1 [Example 107]
- CC50 at 4 days [1]: ≥ 100000 nM
- EC50 [2]: 300 nM

SMILES: COc1ccc(N(C)C(=O)[C@H](Cc2ccccc2)NC(=O)c2cccc(S(=O)(=O)N[C@@H](Cc3ccccc3)C(=O)N(C)c3ccc(OC)cc3)c2)cc1 [Example 108]
- CC50 at 4 days [1]: ≥ 100000 nM
- EC50 [2]: 720 nM

SMILES: COc1ccc(N(C)C(=O)[C@H](Cc2ccccc2)Nc2ncnc(N[C@@H](Cc3ccccc3)C(=O)N(C)c3ccc(OC)cc3)n2)cc1 [Example 109]
- CC50 at 4 days [1]: 65400 nM
- EC50 [2]: 6870 nM

SMILES: COc1ccc(N(C)C(=O)[C@H](Cc2ccccc2)NC(=O)c2cc(Br)cc(C(=O)N[C@@H](Cc3ccccc3)C(=O)N(C)c3ccc(OC)cc3)c2)cc1 [Example 110]
- CC50 at 4 days [1]: ≥ 100000 nM
- EC50 [2]: 210 nM

SMILES: COc1ccc(N(C)C(=O)[C@H](Cc2ccccc2)NC(=O)c2cncc(C(=O)N[C@@H](Cc3ccccc3)C(=O)N(C)c3ccc(OC)cc3)n2)cc1 [Example 111]
- CC50 at 4 days [1]: ≥ 100000 nM
- EC50 [2]: 960 nM

SMILES: COc1ccc(N(C)C(=O)[C@H](Cc2ccccc2)NC(=O)c2cc(C(=O)N[C@@H](Cc3ccccc3)C(=O)N(C)c3ccc(OC)cc3)ncn2)cc1 [Example 112]
- CC50 at 4 days [1]: 1300 nM
- EC50 [2]: 1710 nM

SMILES: COc1ccc(N(C)C(=O)[C@H](Cc2ccccc2)NC(=O)c2cc(C(=O)N[C@@H](Cc3ccccc3)C(=O)N(C)c3ccc(OC)cc3)n(C)n2)cc1 [Example 115]
- CC50 at 4 days [1]: ≥ 100000 nM
- EC50 [2]: 2130 nM
